Test results from patent US12233045B2, “Therapeutic agent for treating bradyarrhythmia” (OSAKA UNIVERSITY, priority 2018, dated 2025).
Positions count from the first letter of the chain named.

Assays:
KCNJ3 N83H KACh channel = molecular target: T1, KCNJ3 N83H KACh channel (Homo sapiens, UniProt P48544+P48549, N83H); test: two-electrode voltage clamp, KACh channel expressed in Xenopus laevis oocytes (N83H mutant); format: cell-based; settings: for inhibition of the N83H mutant compared with the WT KACh channel: N83H vs WT; for inhibitory effect on the KCNJ3 N83H KACh channel: two-electrode voltage clamp
T1 construct: expressed in transfected cells; host or cells: Xenopus laevis oocytes (cRNA injection)
T1 sequence (P48549 1-501 N83H): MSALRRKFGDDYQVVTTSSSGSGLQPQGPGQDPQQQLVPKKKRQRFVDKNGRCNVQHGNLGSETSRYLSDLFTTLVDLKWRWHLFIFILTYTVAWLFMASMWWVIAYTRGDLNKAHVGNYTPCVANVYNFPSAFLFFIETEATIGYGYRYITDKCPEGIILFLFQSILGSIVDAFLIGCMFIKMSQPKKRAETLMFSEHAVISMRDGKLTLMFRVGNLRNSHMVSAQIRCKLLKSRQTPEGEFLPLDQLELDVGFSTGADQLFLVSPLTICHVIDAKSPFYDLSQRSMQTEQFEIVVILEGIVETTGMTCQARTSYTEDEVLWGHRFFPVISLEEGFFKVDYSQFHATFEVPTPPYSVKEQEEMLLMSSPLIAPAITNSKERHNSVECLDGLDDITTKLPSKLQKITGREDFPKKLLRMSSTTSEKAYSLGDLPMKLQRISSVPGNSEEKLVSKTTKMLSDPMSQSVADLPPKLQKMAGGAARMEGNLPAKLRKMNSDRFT
T1 sequence (P48544 1-419): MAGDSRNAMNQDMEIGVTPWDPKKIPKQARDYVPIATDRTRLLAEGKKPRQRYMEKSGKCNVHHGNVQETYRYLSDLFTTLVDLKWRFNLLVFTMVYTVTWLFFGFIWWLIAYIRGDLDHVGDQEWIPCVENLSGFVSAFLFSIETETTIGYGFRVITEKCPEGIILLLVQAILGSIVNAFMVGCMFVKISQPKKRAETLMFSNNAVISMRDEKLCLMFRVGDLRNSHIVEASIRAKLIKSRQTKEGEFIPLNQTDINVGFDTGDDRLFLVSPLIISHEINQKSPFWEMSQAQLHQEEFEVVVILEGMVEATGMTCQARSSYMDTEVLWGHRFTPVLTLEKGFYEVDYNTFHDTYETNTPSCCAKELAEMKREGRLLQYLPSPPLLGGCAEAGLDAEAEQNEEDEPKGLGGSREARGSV
Text: (§1) By co-expressing with […] subunits of G protein, a whole cell current was able to be directly measured via the activated KACh channel.
The coding sequence of human KCNJ3 WT was obtained by amplifying a human KCNJ3 cDNA clone (commercially available from Invitrogen) by PCR, and subcloning it into a pCS2+ vector (commercially available from Addgene). The c.247A>C mutation providingKCNJ3 N83H was introduced by site-directed mutagenesis through PCR. Similarly, the human KCNJ5 coding sequence was obtained by amplifying a human KCNJ5 cDNA clone (commercially available from Invitrogen) by PCR and subcloning it into a pCS2+ vector. The cRNAs of KCNJ3 WT, KCNJ3 N83H and KCNJ5 were synthesized from linearized cDNA using an mMESSAGE mMACHINE kit (commercially available from Life Technologies) vitro transcription. cRNA of KCNJ3 N83H or KCNJ3 WT and cRNA of wild type KCNJ5 were injected into Xenopus laevis oocytes together with cRNA of β and γ subunits of G protein, and incubated in an ND96 solution at 18° C. for 48 to 96 hours.
For the extracellular fluid, the pH of a test bath solution containing 40 mM potassium chloride, 50 mM sodium chloride, 3 mM magnesium chloride M, 0.15 mM niflumic acid, and 5 mMHEPES was adjusted to 7.4 with potassium hydroxide.
(§2) The whole cell current via the expressed KACh channel was measured by a two-electrode voltage clamp method using a GeneClamp 500 amplifier (commercially available from Molecular Devices). The compound (II) dissolved in DMSO, and a perfusate was prepared so that the final concentration was 0.001, 0.01, 0.03, 0.1, 1, and 10 μM. The perfusate containing the compound (II) with a low concentration was added when the amount of current was almost steady, and the amount of current was then recorded while replacing it with a perfusate with a high concentration in the same manner. When the recording was ended, Ba^2+ (3 mM) was added, and the intrinsic leak current was measured. The measured data was analyzed using Clampfit 10.2 (commercially available from Molecular Devices). The IC50 value was calculated using GraphPad Prism version 5.00 (commercially available from GraphPad Software).

KCNJ3 WT KACh channel [1] = molecular target: T2, KCNJ3 WT KACh channel (Homo sapiens, UniProt P48544+P48549); test: two-electrode voltage clamp, KACh channel expressed in Xenopus laevis oocytes (wild type); format: cell-based
T2 construct: expressed in transfected cells; host or cells: Xenopus laevis oocytes (cRNA injection)
T2 sequence (P48549 1-501): T1 sequence (P48549 1-501 N83H) with H83N
T2 sequence (P48544 1-419): T1 sequence (P48544 1-419)
Text: as §1
The coding sequence of human KCNJ3 WT was obtained by amplifying a human KCNJ3 cDNA clone (commercially available from Invitrogen) by PCR, and subcloning it into a pCS2+ vector (commercially available from Addgene). The c.247A>C mutation providingKCNJ3 N83H was introduced by site-directed mutagenesis through PCR. Similarly, the human KCNJ5 coding sequence was obtained by amplifying a human KCNJ5 cDNA clone (commercially available from Invitrogen) by PCR and subcloning it into a pCS2+ vector. […]
as §2, with “The compound (II) dissolved in DMSO, and a perfusate was prepared so that the final concentration was 0.001, 0.01, 0.03, 0.1, 1, and 10 μM.” left out

[2] = tested on: KCNJ3 N83H mutant zebrafish; test: transgenic zebrafish model, heart rate and pulsation rhythm analysis (KCNJ3 N83H); format: in vivo, zebrafish (Danio rerio); settings: for effect on heart rate and bradyarrhythmia: 100 nM in 0.03% sea salt aqueous solution, after 1 hour, 2 day old fry; for effect on sinus arrest / atrioventricular block caused by the N83H mutation: 100 nM, 1 hour after application
Protocol: (§3) As a comparative example, zebrafish for KCNJ3 WT expression was also prepared in the same manner.
Transgenic zebrafish was prepared by a transposon transfer system using transposon Tol2. Since the cardiac KACh channel was expressed in the sinoatrial node, atrioventricular node, and atrial muscle, a gene construct in which three genes of mCherry were linked with a 2A peptide was prepared so that human KCNJ3 WT or N83H and human KCNJ5, and additionally gene introduction thereof were able to be determined under a fluorescence microscope under the control of the atrial myosin heavy chain (amhc) promoter, which expressed a target gene in zebrafish in an atrial-specific manner (FIG. 3). Next, a small amount of mRNA of the transposase encoded by Tol2 gene and this construct were simultaneously injected into the fertilized egg. When the adult fish prepared in this manner were crossed with wild type zebrafish, fish whose germline transmission was confirmed by generating fry positive for mCherry in the atrium under a fluorescence microscope were used as an F0 founder. When this F0 founder was crossed with wild type zebrafish hspGFF3A, which expressed GFP in both the ventricle and the atrium (Proceedings of the National Academy of Sciences of the United States of America. 2008; 105:1255-1260.), the heart rate and the heart pulsation rhythm were analyzed using 2 day old F1 transgenic zebrafish fry which expressed GFP in the ventricle and GFP and mCherry in the atrium (FIG. 4). Specifically, zebrafish fry was fixed on a glass bottom dish with a diameter of 35 mm with a 0.5% low-melting-point agarose gel, and the fry heart in a 0.03% sea salt aqueous solution was observed under a fluorescence microscope. Based on the video of the heart beat acquired by the camera attached to the fluorescence microscope, detailed analysis of the heart rate and pulsation rhythm was performed using original M mode analysis software (The Journal of clinical investigation. 2007, 117:2812-2824.). The heart rate was measured by the pulsation of the sinus venosus part including the sinus node. Since the expression level of mCherry in the atrium was not different between KCNJ3 WT zebrafish and KCNJ3 N83H mutant zebrafish, the expression level of the KACh channel gene was considered to be the same in both cases. In the KCNJ3 N83H mutant zebrafish, significant atrial enlargement and a bradyarrhythmia phenotype similar to human cases (sinus arrest, sinus bradycardia, sinoatrial block, atrioventricular block) were observed (FIG. 5). Next, the 0.03% sea salt aqueous solution was replaced with a 0.03% sea salt aqueous solution containing the 100 nM compound (II), and the heart beat after 1 hour was analyzed in the same manner.

KCNJ3 WT zebrafish = test: transgenic zebrafish model, heart rate analysis (KCNJ3 WT); format: in vivo, zebrafish (Danio rerio); settings: 100 nM, after 1 hour
Protocol: as §3
Transgenic zebrafish was prepared by a transposon transfer system using transposon Tol2. Since the cardiac KACh channel was expressed in the sinoatrial node, atrioventricular node, and atrial muscle, a gene construct in which three genes of mCherry were linked with a 2A peptide was prepared so that human KCNJ3 WT or N83H and human KCNJ5, and additionally gene introduction thereof were able to be determined under a fluorescence microscope under the control of the atrial myosin heavy chain (amhc) promoter, which expressed a target gene in zebrafish in an atrial-specific manner (FIG. 3). […] When the adult fish prepared in this manner were crossed with wild type zebrafish, fish whose germline transmission was confirmed by generating fry positive for mCherry in the atrium under a fluorescence microscope were used as an F0 founder. When this F0 founder was crossed with wild type zebrafish hspGFF3A, which expressed GFP in both the ventricle and the atrium (Proceedings of the National Academy of Sciences of the United States of America. 2008; 105:1255-1260.), the heart rate and the heart pulsation rhythm were analyzed using 2 day old F1 transgenic zebrafish fry which expressed GFP in the ventricle and GFP and mCherry in the atrium (FIG. 4). […]

KCNJ3 WT KACh channel [3] = molecular target: T2, KCNJ3 WT KACh channel; settings: literature (Jin W, Lu Z. Biochemistry 1999); cited from earlier work
[4] = molecular target: T3, KCNJ5 WT/W101C KACh channel (Homo sapiens, UniProt P48544+P48549, W101C); test: two-electrode voltage clamp, W101C heterozygous mutant KACh channel in Xenopus laevis oocytes; format: cell-based; settings: 0.01, 0.1 and 1 μM
T3 construct: expressed in transfected cells; host or cells: Xenopus laevis oocytes (cRNA injection)
T3 sequence (P48544 1-419 W101C): T1 sequence (P48544 1-419) with W101C
T3 sequence (P48544 1-419): T1 sequence (P48544 1-419)
T3 sequence (P48549 1-501): T1 sequence (P48549 1-501 N83H) with H83N
Protocol: In Xenopus laevis oocytes, in order to imitate autosomal dominant inheritance heterozygous, equimolar amounts of cRNAs of wild type KCNJ5 (KCNJ5 WT) and KCNJ5 W101C were injected together with cRNA of wild type KCNJ3 (KCNJ3 WT), the W101C heterozygous mutant KACh channel was expressed, electrodes were inserted, and the channel activity was confirmed by a two-electrode voltage clamp method.
The above human KCNJ5 cDNA clone (commercially available from Invitrogen) was amplified by PCR and subcloned it into a pCS2+ vector (commercially available from Addgene) to prepare a template, and the c.303G>C mutation providing KCNJ5 W101C was introduced by site-directed mutagenesis through PCR. […]
The whole cell current via the expressed KACh channel was measured by a two-electrode voltage clamp method using a GeneClamp 500 amplifier (commercially available from Molecular Devices). […] The perfusate containing the compound (I) with a low concentration was added when the current amplitude was almost steady, and the current amplitude was then recorded while replacing it with a perfusate with a high concentration in the same manner. When the recording was ended, Ba^2+ (3 mM) was added, and the intrinsic leak current was measured.

IC50 (KCNJ3 N83H KACh channel; N83H mutant, n=14, p<0.01 vs wild type, read-out: IC50 value, inhibition of whole cell current) [nM] | IC50 (KCNJ3 WT KACh channel [1]; wild type, n=13, read-out: IC50 value, inhibition of whole cell current) [nM] | inhibitory effect on the KCNJ3 WT KACh channel (KCNJ3 WT KACh channel [1]; two-electrode voltage clamp) | Compound | inhibition of the N83H mutant compared with the WT KACh channel (KCNJ3 N83H KACh channel) | inhibitory effect on the KCNJ3 N83H KACh channel (KCNJ3 N83H KACh channel) | effect on heart rate and bradyarrhythmia [2] | effect on heart rate (KCNJ3 WT zebrafish) | effect on sinus arrest / atrioventricular block caused by the N83H mutation [2] | inhibitory action on the KCNJ3 WT KACh channel (KCNJ3 WT KACh channel [3]) | inhibitory effect on the KCNJ5 WT/W101C KACh channel [4]
50 ± 12 | 230 ± 60 |  | CC1(C)Oc2cc([N+](=O)[O-])c(N)cc2[C@H](NCCc2ccccc2)[C@H]1O [compound (II), (3R,4S)-6-amino-3,4-di hydro-2,2-dimethyl-7-nitro-4-(2-phenethylamino)-2H-1-benzopyran-3-ol] | higher affinity for the mutant KACh channel | concentration-dependent inhibitory effect | increasing the heart rate and improving bradyarrhythmia | appropriate increase in the heart rate without causing excess tachycardia |  |  | 
 |  |  | Tertiapin-Q [reference compound] |  |  |  |  | did not improve sinus arrest | inhibitory action | 
 |  | exhibited the inhibitory effect | Cc1cc(CO)nc2cc3c(cc12)OC(C)(C)[C@H](O)[C@H]3NCCc1ccccc1 [compound (I), (3R4S)-7-hydroxymethyl-2,2,9-trimethyl-4-(phenethylamino)-3,4-dihydro-2H-pyra no[2,3-g]quinoline-3-ol] | stronger on N83H than WT | exhibited the inhibitory effect | increasing the heart rate and improving bradyarrhythmia |  | improved the sinus arrest and atrioventricular block |  | concentration-dependent inhibitory effect
